Assay results from ChEMBL document CHEMBL3856231 (J Med Chem, 2016).
Activity calls are given as the source filed them. The calls are words filed in the database; no cut-off is given here.

Key:
[1] = Drug level in plasma of FAK expressing human CWR22 cells xenografted Nu/Nu mouse at 55 mg/kg, po administered as single dose measured at 2 hrs by LC-MS/MS analysis; assay type: ADME, organism-based
[2] = target: ALK tyrosine kinase receptor (Homo sapiens, UniProt Q9UM73); details: 1 uM
Description: Inhibition of human ALK (1088 to 1409 residues) expressed in mammalian system at 1 uM by KINOMEscan assay

[3] = AUC (0 to infinity) in Sprague-Dawley rat at 5 mg/kg, po by LC/MS/MS analysis; assay type: ADME, organism-based; set-up: dose 5 mg/kg, time infinity, route oral; details: in vivo
[4] = Volume of distribution in CD-1 mouse at 1 mg/kg, iv by LC/MS/MS analysis; assay type: ADME, organism-based; details: in vivo
[5] = Drug level in plasma of FAK expressing human CWR22 cells xenografted Nu/Nu mouse at 55 mg/kg, po administered as single dose measured at 24 hrs by LC-MS/MS analysis; assay type: ADME, organism-based
[6] = Cmax in Sprague-Dawley rat plasma at 30 mg/kg, po by LC/MS/MS analysis; assay type: ADME, organism-based; set-up: dose 30 mg/kg, route oral
[7] = Oral bioavailability in CD-1 mouse at 10 mg/kg by LC/MS/MS analysis; assay type: ADME, organism-based; details: in vivo
[8] = system: NCI-H2228; test: Antitumor activity against human NCI-H2228 cells expressing EML4-ALK xenografted in SCID-Beige mouse assessed as reduction in tumor volume at 30 mg/kg, po bid administered for 11 days measured during compound dosing; assay type: functional, organism-based

ALK tyrosine kinase receptor, sequence (Q9UM73 19-1620 limits assumed): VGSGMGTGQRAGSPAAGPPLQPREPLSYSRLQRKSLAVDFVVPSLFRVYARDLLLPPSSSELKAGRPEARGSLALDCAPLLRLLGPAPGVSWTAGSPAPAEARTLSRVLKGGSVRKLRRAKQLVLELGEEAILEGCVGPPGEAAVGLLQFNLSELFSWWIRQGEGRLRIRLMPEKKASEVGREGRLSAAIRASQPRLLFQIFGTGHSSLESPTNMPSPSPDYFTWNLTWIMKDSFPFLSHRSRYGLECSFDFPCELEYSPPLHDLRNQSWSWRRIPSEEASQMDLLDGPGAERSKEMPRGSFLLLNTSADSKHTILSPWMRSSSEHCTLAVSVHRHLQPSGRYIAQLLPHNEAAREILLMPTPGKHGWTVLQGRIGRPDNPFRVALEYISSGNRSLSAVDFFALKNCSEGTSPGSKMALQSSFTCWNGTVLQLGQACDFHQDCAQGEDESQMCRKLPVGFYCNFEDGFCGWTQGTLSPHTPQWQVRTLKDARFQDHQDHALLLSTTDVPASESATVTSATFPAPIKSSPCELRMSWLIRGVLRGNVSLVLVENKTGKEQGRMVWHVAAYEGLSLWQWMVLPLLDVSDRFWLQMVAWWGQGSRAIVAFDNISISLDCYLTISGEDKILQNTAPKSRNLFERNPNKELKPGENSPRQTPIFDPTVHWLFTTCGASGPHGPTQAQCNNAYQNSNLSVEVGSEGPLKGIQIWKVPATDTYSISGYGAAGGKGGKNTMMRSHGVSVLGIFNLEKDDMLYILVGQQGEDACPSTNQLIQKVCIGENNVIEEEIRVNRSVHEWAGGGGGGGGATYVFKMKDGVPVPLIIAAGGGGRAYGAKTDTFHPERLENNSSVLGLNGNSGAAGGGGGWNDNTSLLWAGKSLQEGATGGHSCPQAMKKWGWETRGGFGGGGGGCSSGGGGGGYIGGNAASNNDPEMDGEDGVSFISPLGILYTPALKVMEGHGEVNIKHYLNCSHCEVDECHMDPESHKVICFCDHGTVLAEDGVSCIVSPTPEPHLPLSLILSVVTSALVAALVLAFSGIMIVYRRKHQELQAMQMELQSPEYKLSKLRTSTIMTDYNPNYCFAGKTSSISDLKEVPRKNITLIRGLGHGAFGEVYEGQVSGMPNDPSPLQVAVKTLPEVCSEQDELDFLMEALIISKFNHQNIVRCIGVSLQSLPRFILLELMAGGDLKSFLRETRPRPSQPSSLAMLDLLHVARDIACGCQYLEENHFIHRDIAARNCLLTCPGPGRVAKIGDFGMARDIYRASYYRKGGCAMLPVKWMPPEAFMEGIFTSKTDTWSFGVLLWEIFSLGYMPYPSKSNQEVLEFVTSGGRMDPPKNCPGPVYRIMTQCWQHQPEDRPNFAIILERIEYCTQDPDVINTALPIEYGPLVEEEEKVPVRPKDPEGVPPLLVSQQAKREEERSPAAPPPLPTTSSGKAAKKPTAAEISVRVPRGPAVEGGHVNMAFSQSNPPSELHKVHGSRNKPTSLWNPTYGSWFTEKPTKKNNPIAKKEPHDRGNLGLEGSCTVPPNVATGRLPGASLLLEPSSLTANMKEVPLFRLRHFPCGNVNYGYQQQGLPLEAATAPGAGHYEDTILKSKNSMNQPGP

SMILES: CNC(=O)c1ccccc1Nc1nc(Nc2ccc3c(c2OC)CCC[C@H](N2CCN(CCO)CC2)C3)ncc1Cl [CEP-37440]
- concentration at 2 h [1]: 4130 ng/mL
- inhibition [2]: > 90%
- AUC(0-inf) [3]: 8360 ng·h/mL
- Vd [4]: 2.7 L/kg
- concentration at 24 h [5]: 1190 ng/mL
- Cmax [6]: 2120 ng/g
- bioavailability [7]: 102%
- Activity [8]: Active
